The source of these data is patent US20250313593A1, “DIPEPTIDE DERIVATIVE COMPOSITION, PREPARATION METHOD THEREFOR, AND USE THEREOF” (BEIJING CONTINENT PHARMACEUTICALS CO., LTD, priority 2022, published 2025).

Data set [1] can be described thus: Stability of F573 solution before and after high-temperature sterilization. In kind it is physicochemical. Conditions: for Content / Related substances: propylene glycol/water (80%/20%), pH 4.0-5.0. How it is done: 1.2 Investigation of Stability of F573 Injection
F573 was dissolved in the solution of propylene glycol/water (80%/20%; pH was adjusted to 4.0-5.0), and the resulting mixture was sterilized at a high temperature of 120° C. for 15 min and then examined (the results are shown in Table A-2 below).

Data set [2] deals with cells. Conditions: background; cited from earlier work.
Data set [3] in a line: Screening injection solvents for F573 (solvent effects, dissolution behavior). In kind it is physicochemical. Conditions: 2 ml:30 mg F573. The text has this: 1.1 for the Purpose of Preparing F573 Injection, Screening Injection Solvents
For data set [4], the system named is liver failure. The settings on record: background; CN201110025509.8 and CN201110025516.8; cited from earlier work.
Where [5] appears, read: After sterilization at 120° C. for 15 min.
Setting [6] is: after the high-temperature sterilization.

“Also recorded” adds a separate entry of the source.

With `CC(C)[C@H](NC(=O)OCc1ccccc1)C(=O)NC(CC(=O)O)C(=O)CF` (stereo partly drawn) [F573, 3-(2-benzyloxycarbonylamino-3-methyl-butanamido)-5-fluoro-4-oxo-pentanoic acid], the Content in data set [1] (setting [5]) is given as 8.82 mg/mL; in data set [1] (Before sterilization), 16.08 mg/mL. The values for the Related substances in data set [1] (setting [5]) and in data set [1] (Before sterilization) were 47.22% and 1.80%, respectively. Moreover, the “Increase in the related substances” value in data set [1] (setting [6]) is “about 50%”. Also, the “Reduction in the F573 content” value in data set [1] (setting [6]) is reported as “about 50%”. Further, in data set [1] (aqueous solution, moist heat sterilization), the “Stability in aqueous solution” value is given as “poor stability”. The Toxicity on cells result in data set [2] is “no significant toxicity on cells”. The Dissolution behavior result in data set [3] (Ethanol/water (10%/90%)) is “Turbid”; in data set [3] (Oil for injection, Vegetable oil) it was “Turbid”; in data set [3] (Propylene glycol/water (50%/50%)), “Turbid”; in data set [3] (Propylene glycol/water (80%/20%), adjusting pH to 4.0-5.0), “completely dissolved; also recorded: Clarified”; in data set [3] (Water for injection, adjusting pH to 2.0-2.5) it was “Turbid”; in data set [3] (Water for injection, adjusting pH to 4.0-5.0), “Turbid”. In addition, in data set [4], the “Efficacy on liver failure” value is reported as “remarkable efficacy on liver failure”.
